The record followed here is US10160785B2, “Antimicrobial peptides and their use for the treatment of topical infections” (priority 2015, dated 2018).

Where a SMILES comes first, the peptide text is derived from it.

Assay [1] relates to Enterococcus faecalis Motol. The conditions noted are these: BHI medium, 37° C., 20 h.
Assay [2] relates to Staphylococcus epidermidis Motol. As to conditions: 37° C., 20 h. An outline of the steps:
(§1)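 MIC broth microdilution, LB, ~10^5 CFU/well, peptide 0.1–100 μmol.l^−1 (twofold series). 37 °C, 20 h, continuous shaking; A540 every 15 min.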

A further assay deals with Candida albicans Olomouc. The conditions noted are these: Candida albicans Olomouc; YPD medium; 37° C., 20 h (Example 2).
A further assay relates to Bacillus subtilis. As to conditions: Bacillus subtilis; 37° C., 20 h. An outline of the steps: as §1
Assay [3] relates to Staphylococcus aureus Motol. As to conditions: Staphylococcus aureus Motol clinical isolate; 37° C., 20 h. The method in brief:
as §1

In another assay the test system is Escherichia coli. The conditions noted are these: 37° C., 20 h. An outline of the steps: as §1
The subject of another assay is Micrococcus luteus. As to conditions: Micrococcus luteus; 37° C., 20 h. The method in brief: as §1
The subject of assay [4] is Pseudomonas aeruginosa 5482. The conditions noted are these: 37° C., 20 h. An outline of the steps: as §1
In assay [5] the test system is Methicillin resistant Staphylococcus aureus (MRSA) 6271. As to conditions: 37° C., 20 h. An outline of the steps: as §1
Assay [6] deals with Pseudomonas aeruginosa Liberec. As to conditions: Pseudomonas aeruginosa Liberec; 37° C., 20 h. An outline of the steps: as §1
The test system of assay [7] is Staphylococcus aureus Liberec. The conditions noted are these: Staphylococcus aureus Liberec clinical isolate; 37° C., 20 h. An outline of the steps: as §1
The test system of assay [8] is Candida albicans (Olomouc) biofilm. Briefly: C. albicans biofilm, remaining metabolic activity (XTT). The format is cell-based. An outline of the steps:
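Candida albicans (Olomouc) biofilms grown 48 h at 37 °C in MOPS-buffered RPMI 1640 from 1×10^6 CFU inocula, then exposed 20 h to peptide at 0.39-200 μmol.l^−1. XTT/PMS staining for 90 min, A540; remaining metabolic activity expressed as percent of untreated biofilm after blank correction.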

As for `CCCC[C@H](NC(=O)[C@H](CC(C)C)NC(=O)[C@H](CO)NC(=O)[C@H](CO)NC(=O)[C@H](CCCC)NC(=O)[C@@H](NC(=O)CN)[C@@H](C)CC)C(=O)N[C@@H](CCCCN)C(=O)N[C@@H](CCCCN)C(=O)N[C@@H](CC(C)C)C(=O)N[C@@H](CCCCN)C(=O)N[C@@H](CCCCN)C(=O)N[C@H](C(=O)N[C@H](C(=O)N[C@@H](C)C(=O)N[C@@H](CCCCN)C(N)=O)[C@@H](C)CC)[C@@H](C)CC` [V] (HELM PEPTIDE1{G.I.[Nle].S.S.L.[Nle].K.K.L.K.K.I.I.A.K.[am]}$$$$V2.0), the “Antimicrobial activity MIC E. f. Motol” value in [1] was found to be 54.0 µM. Moreover, the “Antimicrobial activity MIC S. e. Motol” value in assay [2] was found to be 2.5 µM. In addition, the “Antimicrobial activity MIC C. a. Olomouc” value with Candida albicans Olomouc is 10.0 µM. Further, the “Antimicrobial activity MIC B. s.” value with Bacillus subtilis worked out at 3.5 µM. In addition, in assay [3], the “Antimicrobial activity MIC S. a. Motol” value came out at 6.7 µM. The “Antimicrobial activity MIC E. c.” value in the assay with Escherichia coli came to 10.0 µM. In addition, the “Antimicrobial activity MIC M. l.” value in the assay with Micrococcus luteus was determined as 1.6 µM. Further, the “Antimicrobial activity MIC P. a. 5482” value in assay [4] is 4.0 µM. In addition, the “Antimicrobial activity MIC S. a. 6271” value in [5] was determined as 12.7 µM. In assay [6], the “Antimicrobial activity MIC P. a. Liberec” value stood at 7.9 µM. Moreover, the “Antimicrobial activity MIC S. a. Liberec” value in [7] is 4.0 µM. Also, the “Metabolic activity of C. albicans (%)” value in [8] (peptide concentration 6.25 μmol · l^−1, 20 hours) came to 106.4%; in assay [8] (peptide concentration 12.5 μmol · l^−1, 20 hours), 89.5%; in [8] (peptide concentration 25 μmol · l^−1, 20 hours), 45.0%; in assay [8] (peptide concentration 50 μmol · l^−1, 20 hours), 6.9%; in assay [8] (peptide concentration 100 μmol · l^−1, 20 hours), 2.4%; in assay [8] (peptide concentration 200 μmol · l^−1, 20 hours), 0.4%.
